These results are taken from US20250339569A1, “CARBONIC ANHYDRASE IX LIGANDS” (priority 2021, published 2025).

The subject of data set [1] is HT-29 tumor. The data set is described as follows: Biodistribution study (SPECT/CT) in HT-29 tumor-bearing mice. The class given is in vivo, NMRI nude mice. The note with it: HT-29, In-111-labeled. As for the experimental part: The effect on tumor uptake of prior injection of gelofusine for kidney protection was investigated in mice bearing the SK-RC-52 tumor. Biodistribution was evaluated using in vivo SPECT/CT imaging. Prior to the in vivo study the compounds (ligands) were initially radiolabeled with In-111 and the stability of radiolabeled compounds was evaluated in buffer at three different timepoints.
The study was performed in female NMRI nude mice (approximately 6 weeks of age) from Janvier Labs, France, housed up to 5 mice per cage.
The column was washed with 2 mL water, and then the final product was eluted from the column in EtOH solution (50%) • The sample was formulated in PBS to the final concentration of 150 MBq/mL and 5 nmol/mL.
SK-RC-52 cells were cultured in RPMI 1640 with GlutaMax-I (Thermo Fisher Scientific #61870044) supplemented with 10% fetal bovine serum+1% penicillin/streptomycin, harvested, washed twice in RPMI 1640 and resuspended at 2×10^7 cells/mL in RPMI 1640. HT-29 cells were cultured in McCoy's 5a Medium Modified (Sigma #M9309). For inoculation of HT-29 cells, cells were harvested, washed twice in PBS and resuspended at 5×10^7 cells/mL in PBS. Cells were kept on ice until inoculation.
Animals were anaesthetized (isoflurane, 2-4% in ambient air supplemented with 100% 02) prior to tumor inoculation. The tumor cells (100 μL suspension of either SK-RC-52 cells (2×10^6 cells/animal) or HT-29 cells (5×10^6 cells/animal)) were subcutaneously inoculated in the right flank using a 1-mL syringe equipped with a 27 G needle. Tumor growth and animal weight were measured twice per week. Tumor size was measured by caliper and the volume was estimated using the following formula: 0.52×(length×width^2). When tumor sizes reached 150-250 mm^3, animals were randomized into groups (n=3) of similar average tumor volume and body weight.
Animals were injected intravenously with In-111-labeled compounds (single bolus, 22.3-31.2 MBq, ˜1 nmol ligand, injection volume: 100 μL) in the lateral tail vein using a 29 G syringe.
CT was performed with helical scan, 300 ms exposure, reconstruction resolution of 250 μm. SPECT was performed with multi-pinhole scan and a 30 s frame time. For the quantification of the radioactivity uptake, regions of interests (ROIs) were drawn over the tumor, kidney, liver, and heart (estimate of blood) identified on the images. Uptake was expressed as percent of injected dose per gram tissue (% ID/g).

A short description of data set [2]: Allometry and prediction of human exposure and PK parameters. The note with it: allometry from mouse and dog PK. As for the experimental part:
From the variety of CL, Vd and T1/2 determined in the animal studies, the highest and lowest values for each species were retained, and allometry was conducted on all the combinations to obtain a range for each predicted human PK parameter.
The missing input parameters were dealt with as follows. Regarding blood:plasma concentration ratio, the frequent default values of 1.0 and 0.8 were considered and found to make no difference to the outputs, so it was left at 1.0. Plasma protein binding: a free fraction fup of 1 was considered in order to estimate the highest C5 min values.

Data set [3] deals with T1, mouse CAIX (Mus musculus, UniProt Q8VHB5).
T1 construct: host or cells: CHO-VGT / CHO cells
The data set can be described thus: Radioligand saturation binding on CHO-msCAIX. As for the experimental part: After attainment of equilibrium, the cells were harvested, and the bound fraction of the compounds was measured. The resulting saturation binding data were analyzed using Graph Pad Prism 8.3.
CHO cells transfected with human, dog, and mouse CAIX (CHO-huCA9 T04J-1/20 K1, CHO-dogCA9 T05J-9/20 K4, CHO-murCA9 T05J-3/20 K4) were obtained from InSCREENex (Germany).
A molar excess of 3BP-3565 was used as a blocking peptide to assess non-specific binding in autoradiographic studies. 3BP-3565 binds with a similar affinity to CAIX and blocks binding sites of test compounds. For the blocking solution, a 10 mM stock solution of 3BP-3565 was prepared by dissolution in DMSO.
CHO cells were maintained in Ham's medium supplemented with 10% fetal bovine serum, 2 mM L-glutamine, 100 U/mL Penicillin and 0.1 mg/mL streptomycin under standard cell culture conditions. The cells were grown in uncoated cell culture flasks (150 cm^2, Biochrom) to subconfluence and then split 1:2-1:3. Approximately 24 hours before the assay, cells were detached by incubation with Accutase and carefully tapping the flasks. Detached cells were resuspended in medium and collected by centrifugation (300 g, 5 min, RT). Cell pellets were resuspended in cell culture medium and counted using a particle counter (CASY Model TT, Scharfe Systems, Germany). Cell concentrations were adjusted to 3×10^5 mL^−1, and 1.000 μL per well of the suspension were dispensed into poly-D-lysine-coated flat-clear-bottom 24 well plates.
Compound radiolabeling was performed as follows. […] Then, 25 mg/mL methionine in 1 M sodium acetate buffer pH 5 was added at a final concentration of 0.1 M sodium acetate. Subsequently, the mixture was heated to 80° C. for 25 min, followed by cooling for 5 minutes. Finally, 20 μL of 200 mg/mL ascorbic acid solution, 2.5 μL of 5 mg/mL DTPA and 2.5 μL of 5% TWEEN-20 per 100 μL reaction mixture were added, resulting in the concentrated study solution. For quality control, an aliquot of the labeling solution was diluted 1:40 with 0.1% TWEEN-20 in 0.1 M sodium acetate buffer pH 5. Five microliters of the diluted labeling solution were injected onto a Poroshell SB-C18 2.1×50 mm, 2.7 μm column. HPLC analysis was performed as follows: Gradient A: H2O, 0.1% TFA, Gradient B: Acetonitrile (MeCN), gradient from 5% B to 70% B within 15 min, flow rate of 0.5 mL/min; detector: NaI, DAD 215 nm. The peak eluting with the dead volume represents free radionuclide, the peak eluting with the ligand-specific retention time as determined with a non-labeled sample represents the radiolabeled compound.
The radioligand saturation binding on CHO-msCAIX was determined as follows. […] Their associated radioactivity was counted using a gamma counter and normalized to the measured protein concentration of each well. […]

T1 sequence (Q8VHB5 32-437): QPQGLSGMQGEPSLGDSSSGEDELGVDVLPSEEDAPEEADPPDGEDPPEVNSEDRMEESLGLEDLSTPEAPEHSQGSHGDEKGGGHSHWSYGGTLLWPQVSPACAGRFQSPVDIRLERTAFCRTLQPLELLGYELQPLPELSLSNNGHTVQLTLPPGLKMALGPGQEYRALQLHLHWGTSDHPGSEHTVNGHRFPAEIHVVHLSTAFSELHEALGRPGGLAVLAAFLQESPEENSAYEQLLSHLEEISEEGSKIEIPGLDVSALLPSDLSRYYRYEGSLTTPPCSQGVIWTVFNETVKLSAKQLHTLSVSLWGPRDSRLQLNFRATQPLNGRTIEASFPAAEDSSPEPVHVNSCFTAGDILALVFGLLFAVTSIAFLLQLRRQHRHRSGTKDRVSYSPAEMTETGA

Consider `CC(C)C[C@@H]1NC(=O)[C@H](Cc2cccc(NC(=O)CCCS(N)(=O)=O)c2)NC(=O)[C@H](CC(=O)O)NC(=O)[C@H]2CCCN2C(=O)[C@H](CCC(=O)O)NC(=O)[C@@H](NC(=O)[C@H](CCC(N)=O)NC(=O)CN2CCN(C(=O)CN3CCN(CC(=O)O)CCN(CC(=O)O)CCN(CC(=O)O)CC3)CC2)CSCc2cccc(c2)CSC[C@@H](C(N)=O)NC(=O)[C@H](CO)NC(=O)[C@H](Cc2c[nH]c3ccccc23)NC(=O)[C@H]([C@@H](C)O)NC1=O` [DPI-4452, DOTA-PPAc-Gln-[Cys(3MeBn)-Glu-pro-Asp-Af3(Cpsu)-Leu-Thr-Trp-Ser-Cys]-NH2], for which, in data set [1], the “Time to peak uptake in tumor” value is given as 2 h. In data set [1] (Mean ± SEM), the “% remaining tumor uptake at 24 h p.i.” value is listed as 65.8 ± 3.8%. In data set [2], the “predicted human clearance (CL)” value was 3.57 to 13.0 mL/min/kg, the “predicted human terminal half-life (T1/2)” value is 10.2 to 88.2 min and the “predicted human volume of distribution (Vd)” value was 0.189 to 0.455 L/kg.

As usually defined, the Kd is a measure of binding affinity in units of concentration. Compound `CC(C)C[C@@H]1NC(=O)[C@H](Cc2cccc(NC(=O)CCCS(N)(=O)=O)c2)NC(=O)[C@H](CC(=O)O)NC(=O)[C@H]2CCCN2C(=O)[C@H](CCC(=O)O)NC(=O)[C@@H](NC(=O)[C@H](CCC(N)=O)NC(=O)CN2CCN(C(=O)CN3CCN(CC(=O)O)CCN(CC(=O)O)CCN(CC(=O)O)CC3)CC2)CSCc2cccc(c2)CSC[C@@H](C(N)=O)NC(=O)[C@H](CO)NC(=O)[C@H](Cc2c[nH]c3ccccc23)NC(=O)[C@H]([C@@H](C)O)NC1=O` [[^111In]In-DPI-4452, metal not drawn] had a Kd in data set [3] of 63.1 nM. Moreover, the “Mean pKd ± SD” value in data set [3] (CHO-msCAIX, single experiment) turned out to be 7.2.
